Each block holds one molecule with its values, some of them ahead of it.
Experiments:
[1] = system: endogenous nuclear receptors in CV-1 cells; assay: CV-1 Native Receptors Transcription Assay (MKNRCV1), Test C; assay type: cell-based, African green monkey; conditions: for MKNRCV1 % BRL @ 25 μM: percent activity of BRL 49653; for EC50: Chlorocebus sabaeus, CV-1 cells, 48 hours, unit inferred
[2] = Blood Glucose Measurement (Glucose Δ), Test D; assay type: in vivo, mice; set-up: key to Glucose Δ: change in blood glucose, mg/dL; conditions: for Glucose Δ: 4 hours post dose, 4 hour fasted animals, tail vein whole blood; for % BRL (in vivo, beside Glucose Δ): glucose change relative to BRL
Method: Test D—Blood Glucose Measurement (Glucose Δ) Glucose is obtained 4 hours post dose via tail vein stick (5 μl whole blood) in awake, 4 hour fasted animals. Blood is drawn by capillary action into a glucose cuvette and read in a HemoCue Glucose Analyzer (Ryan Diagnostics). Blood is diluted 1:2 with saline if glucose levels are greater than 400 mg/dl (meter high range) and results multiplied by two.

[3] = system: CV-1 cells (FATP promoter luciferase reporter, 300 nM BRL); assay: ANTCV1 Antagonist Transcription Assay, Test B; assay type: cell-based, African green monkey; conditions: Chlorocebus sabaeus, 25 μM test compound with 300 nM BRL, 48 hrs, % BRL inhibition, read-out: ANTCV1 INHIB @ 25 μM
3T3-L1 preadipocytes = assay: 3T3-L1 Adipocyte Differentiation Assay (ADPDIFF), Test A; assay type: cell-based; conditions: BODIPY lipid fluorescence, reported as % of BRL 49653 at 5 μM
Method: Cells are replenished with FBS containing media on day 5 of post-drug treatment and incubated for additional 4-6 days. Cells are stained with BODIPY a fluorescent lipophilic stain to quantitate the lipid content of the cells. The assay is optimized for a 96-well plate format. Approximately after 10 days of post-drug treatment, cells are fixed in 3% formalin solution for 15 min followed by staining with BODIPY (80 μg/ml) for 20 min at room temperature. The plate is then put through the CYTOFLUOR instrument to measure the fluorescence of BODIPY (excitation=485/20; emission=530/25).

- melting point: 201 to 203 °C
SMILES: Cc1oc(-c2ccccc2)nc1CCOc1ccc(CC(C(=O)O)(n2cccc2)C(F)(F)F)cc1 (stereo not shown) [Example 159, 3,3,3-Trifluoro-2-{4-[2-(5-methyl-2-phenyl-oxazol-4-yl)-ethoxy]-benzyl}-2-pyrrol-1-yl-propionic acid]

- melting point: 146 to 147 °C
SMILES: Cc1oc(-c2ccccc2)nc1CCOc1ccc(C[C@@H](C(=O)O)c2cccs2)cc1 (stereo in doubt) (hydrate or solvate) [Example 32, 3-{4-[2-(5-Methyl-2-phenyl-oxazol-4-yl)-ethoxy]-phenyl}-2-thiophen-2-yl-propionic acid]

- melting point: 114.7 to 116.6 °C
SMILES: COc1ccc(C(Cc2ccc(OCCc3nc(-c4ccccc4)oc3C)cc2)C(=O)O)cc1 (stereo not shown) [Example 37, 2-(4-Methoxy-phenyl)-3-{4-[2-(5-methyl-2-phenyl-oxazol-4-yl)-ethoxy]-phenyl}-propionic acid]

- melting point: 178 to 179 °C
SMILES: Cc1oc(-c2ccccc2)nc1CCOc1ccc(CC(C)(C(=O)O)c2ccccc2)cc1 (stereo not shown) [Example 39, 2-Methyl-3-{4-[2-(5-methyl-2-phenyl-oxazol-4-yl)-ethoxy]-phenyl}-2-phenyl-propionic acid]

- melting point: 124.1 to 125 °C
SMILES: Cc1oc(-c2ccccc2)nc1CCOc1ccc(C[C@@H](C(=O)O)c2ccccc2)cc1 [Example 36, 3-{4-[2-(5-Methyl-2-phenyl-oxazol-4-yl)-ethoxy]-phenyl}-2-phenyl-propionic acid (R)]

- melting point: 143 to 146 °C
SMILES: CC(C(=O)O)n1ccc2c(OCc3ccccc3)cccc21 (stereo not shown) [Example 60, 2-(4-Benzyloxy-indol-1-yl)-propionic acid]

- melting point: 118 to 120 °C
SMILES: Cc1oc(-c2ccccc2)nc1CCOc1ccc(CC(F)(C(=O)NS(C)(=O)=O)c2ccccc2)cc1 (stereo not shown) [Example 76, N-(2-Fluoro-3-{4-[2-(5-methyl-2-phenyl-oxazol-4-yl)-ethoxy]-phenyl}-2-phenyl-propionyl)-methanesulfonamide]

- melting point: 90 to 92 °C
SMILES: Cc1oc(-c2ccccc2)nc1CCC(=O)c1ccc(CC(C(=O)O)n2cccc2)cc1 (stereo not shown) [Example 44, 3-{4-[3-(5-Methyl-2-phenyl-oxazol-4-yl)-propionyl]-phenyl}-2-pyrrol-1-yl-propionic acid]

- melting point: 120 °C
SMILES: Cc1oc(-c2ccccc2)nc1CCOc1ccc(CC(C(=O)O)c2nc(-c3ccccc3)oc2C)cc1 (stereo not shown) [Example 79, 2-(5-Methyl-2-phenyl-oxazol-4-yl)-3-{4-[2-(5-methyl-2-phenyl-oxazol-4-yl)-ethoxy]-phenyl}-propionic acid]

- EC50 [1]: 3600 nM
SMILES: CC(=O)c1cccn1[C@@H](Cc1ccc(OCCc2nc(-c3ccccc3)oc2C)cc1)C(=O)O [drawing 230]
- MKNRCV1 % BRL @ 25 μM [1]: 60 % BRL
- Glucose Δ [2]: 12.4
- % BRL (in vivo, beside Glucose Δ) [2]: −5.1 % BRL
- inhibition at 25 µM [3]: 20%
- ADPDIFF % BRL @ 5 μM (3T3-L1 preadipocytes): 89 % BRL

- melting point: 165 to 166 °C
SMILES: Cc1oc(-c2ccccc2)nc1CCOc1ccc(CC(C)(C(=O)O)c2ccsc2)cc1 (stereo not shown) [Example 74, 2-Methyl-3-{4-[2-(5-methyl-2-phenyl-oxazol-4-yl)-ethoxy]-phenyl}-2-thiophen-3-yl-propionic acid]

- EC50 [1]: 1700 nM
SMILES: Cc1oc(-c2ccccc2)nc1CCOc1ccc(C[C@@H](C(=O)O)n2cccc2C(=O)C(F)(F)F)cc1 [drawing 233]
- MKNRCV1 % BRL @ 25 μM [1]: 75 % BRL
- Glucose Δ [2]: −157.2
- % BRL (in vivo, beside Glucose Δ) [2]: 113.3 % BRL
- inhibition at 25 µM [3]: -1%
- ADPDIFF % BRL @ 5 μM (3T3-L1 preadipocytes): 105 % BRL

- melting point: 95 to 100 °C
SMILES: O=C(O)[C@H](Cc1ccc(CCCN2CCC(c3ccccc3)CC2)cc1)n1cccc1 [Example 131c, (S)-3-{4-[3-(4-Phenyl-piperidin-1-yl)-propyl]-phenyl}-2-pyrrol-1-yl-propionic acid]

- melting point: 158 to 159 °C
SMILES: Cc1oc(-c2ccccc2)nc1CCOc1ccc(C[C@@](C)(C(=O)O)n2ccc(Br)c2)cc1 (stereo in doubt) [Example 58, 2-(3-Bromo-pyrrol-1-yl)-2-methyl-3-{4-[2-(5-methyl-2-phenyl-oxazol-4-yl)-ethoxy]-phenyl}-propionic acid]

- EC50 [1]: 150 nM
SMILES: Cc1oc(-c2ccccc2)nc1CCOc1ccc(C[C@@H](C(=O)O)c2ccccc2)cc1 [drawing 252]
- MKNRCV1 % BRL @ 25 μM [1]: 106 % BRL
- Glucose Δ [2]: −58.8
- % BRL (in vivo, beside Glucose Δ) [2]: 17.8 % BRL
- inhibition at 25 µM [3]: -104%
- ADPDIFF % BRL @ 5 μM (3T3-L1 preadipocytes): 95 % BRL

The next lines start with the molecule.

SMILES: Cc1oc(-c2ccccc2)nc1CCC(=O)c1ccc(C[C@@H](C(=O)O)n2cccc2)cc1 (stereo in doubt) [Example 31, 3-{4-[3-(5-Methyl-2-phenyl-oxazol-4-yl)-propionyl]-phenyl}-2-pyrrol-1-yl-propionic acid]
- melting point: 90 to 92 °C

SMILES: Cc1sc(-c2ccccc2)nc1CCOc1ccc(C[C@@H](C(=O)O)n2cccc2)cc1 [Example 18, (S)-3-{4-[2-(5-Methyl-2-phenyl-thiazol-4-yl)-ethoxy]-phenyl}-2-pyrrol-1-yl-propionic acid]
- melting point: 157 to 158 °C

SMILES: Cc1oc(-c2ccccc2)nc1CCOc1ccc(C[C@@H](C(=O)O)n2ccc(-c3ccccc3)c2)cc1 [Example 4, (S)-3-{4-[2-(5-Methyl-2-phenyl-oxazol-4-yl)-ethoxy]-phenyl}-2-(3-phenyl-pyrrol-1-yl)-propionic acid]
- melting point: 146 to 147 °C

SMILES: CC(=O)c1cccn1[C@@H](Cc1ccc(OCCc2nc(-c3ccccc3)oc2C)cc1)C(=O)O [Example 14, (S)-2-(2-Acetyl-pyrrol-1-yl)-3-{4-[2-(5-methyl-2-phenyl-oxazol-4-yl)-ethoxy]-phenyl}-propionic acid]
- melting point: 110 to 112 °C

SMILES: Cc1oc(-c2ccccc2)nc1CCOc1ccc(CC(C(=O)O)c2ccc(C(F)(F)F)cc2)cc1 (stereo not shown)
- MKNRCV1 % BRL @ 25 μM [1]: 78 % BRL
- EC50 [1]: 200 nM
- Glucose Δ [2]: 246.8
- % BRL (in vivo, beside Glucose Δ) [2]: −180.4 % BRL
- inhibition at 25 µM [3]: -49%
- ADPDIFF % BRL @ 5 μM (3T3-L1 preadipocytes): 107 % BRL

SMILES: Cc1oc(-c2ccccc2)nc1CCOc1ccc(C[C@@H](C(=O)O)n2cccc2C(=O)C(F)(F)F)cc1 [Example 12, (S)-3-{4-[2-(5-Methyl-2-phenyl-oxazol-4-yl)-ethoxy]-phenyl}-2-[2-(2,2,2-trifluoro-acetyl)-pyrrol-1-yl]-propionic acid]
- melting point: 187 to 188 °C

SMILES: Cc1oc(-c2ccccc2)nc1CCOc1ccc(C[C@@H](C(=O)O)n2cccc2Cl)cc1
- MKNRCV1 % BRL @ 25 μM [1]: 70 % BRL
- EC50 [1]: 10 nM
- Glucose Δ [2]: 54.8
- % BRL (in vivo, beside Glucose Δ) [2]: −40.1 % BRL
- inhibition at 25 µM [3]: -17.5%
- ADPDIFF % BRL @ 5 μM (3T3-L1 preadipocytes): 86 % BRL

SMILES: CCc1nnc([C@H](Cc2ccc(OCCc3nc(-c4ccccc4)oc3C)cc2)n2cccc2)o1
- MKNRCV1 % BRL @ 25 μM [1]: 12 % BRL
- Glucose Δ [2]: 46.5
- % BRL (in vivo, beside Glucose Δ) [2]: −20.0 % BRL
- inhibition at 25 µM [3]: 53.8%
- ADPDIFF % BRL @ 5 μM (3T3-L1 preadipocytes): 88 % BRL

SMILES: Cc1oc(-c2ccccc2)nc1CCOc1ccc(CC(C(=O)O)n2ccc(C(=O)c3ccccc3)c2)cc1 (stereo not shown)
- MKNRCV1 % BRL @ 25 μM [1]: 91 % BRL
- EC50 [1]: 2200 nM
- Glucose Δ [2]: −84.4
- % BRL (in vivo, beside Glucose Δ) [2]: 60.8 % BRL
- inhibition at 25 µM [3]: -20%
- ADPDIFF % BRL @ 5 μM (3T3-L1 preadipocytes): 102 % BRL

SMILES: Cc1oc(-c2ccccc2)nc1CCOc1ccc(CC(C(=O)O)c2cccnc2)cc1.Cl (stereo not shown)
- MKNRCV1 % BRL @ 25 μM [1]: 58 % BRL
- EC50 [1]: 400 nM
- Glucose Δ [2]: −72.5
- % BRL (in vivo, beside Glucose Δ) [2]: 31.1 % BRL
- inhibition at 25 µM [3]: -112%
- ADPDIFF % BRL @ 5 μM (3T3-L1 preadipocytes): 132 % BRL

SMILES: O=C(O)[C@H](Cc1ccc(OCCSc2nc3ccccc3s2)cc1)n1cccc1
- MKNRCV1 % BRL @ 25 μM [1]: 102 % BRL
- EC50 [1]: 700 nM
- Glucose Δ [2]: 155.0
- % BRL (in vivo, beside Glucose Δ) [2]: −66.5 % BRL
- inhibition at 25 µM [3]: -102%
- ADPDIFF % BRL @ 5 μM (3T3-L1 preadipocytes): 97 % BRL

SMILES: CN(CC#Cc1ccc(C[C@@H](C(=O)O)n2cccc2)cc1)c1ccccc1
- MKNRCV1 % BRL @ 25 μM [1]: 92 % BRL
- EC50 [1]: 2900 nM
- Glucose Δ [2]: 182.8
- % BRL (in vivo, beside Glucose Δ) [2]: −55.3 % BRL
- inhibition at 25 µM [3]: -31%
- ADPDIFF % BRL @ 5 μM (3T3-L1 preadipocytes): 83 % BRL

— patent publication US20030171377A1, “Antidiabetic agents” (priority 2001, published 2003)
